PMC9369311, “Examination of Intracellular GPCR-Mediated Signaling with High Temporal Resolution” (International Journal of Molecular Sciences, 2022)
Where “and” joins values, the source holds several entries; their conditions need not be identical. Identical values can stand only once.

Molecular target: T1, DmOctβ1 receptor (Drosophila melanogaster, UniProt Q9VCZ3)
T1 construct: expressed in transfected cells; host or cells: flpTM cells (HEK293 flpIn, Invitrogen #750-07, carrying the CNGA2 variant)
T1 sequence (Q9VCZ3 1-508): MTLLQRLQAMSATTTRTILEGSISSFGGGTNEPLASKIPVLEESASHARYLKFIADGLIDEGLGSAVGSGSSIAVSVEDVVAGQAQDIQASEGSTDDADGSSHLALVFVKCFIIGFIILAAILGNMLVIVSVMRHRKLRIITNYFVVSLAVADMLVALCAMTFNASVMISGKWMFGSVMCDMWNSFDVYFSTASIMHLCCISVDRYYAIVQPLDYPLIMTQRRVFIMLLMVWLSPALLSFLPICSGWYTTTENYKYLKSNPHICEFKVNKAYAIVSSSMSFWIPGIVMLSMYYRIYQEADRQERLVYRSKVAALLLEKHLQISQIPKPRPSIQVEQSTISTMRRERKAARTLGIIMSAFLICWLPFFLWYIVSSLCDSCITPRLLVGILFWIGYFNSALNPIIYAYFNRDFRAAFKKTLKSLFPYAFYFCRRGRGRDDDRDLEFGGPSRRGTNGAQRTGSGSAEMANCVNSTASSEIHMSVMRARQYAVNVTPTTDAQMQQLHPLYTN
Assay: Stopped-flow Ca2+ fluorescence measurements, flpTM-DmOctβ1 cells, octopamine
Assay type: cell-based
Procedure: In successive stopped-flow measurements, the flpTM-DmOctβ1 cells loaded with Fluo-4 were stimulated with increasing octopamine (1 nM–3 µM) and NKH477 (100 nM–300 µM) concentrations. The fluorescence intensities were monitored over 80 s and 100 s, respectively (Figure 4A1,B1). The fluorescence intensities increased and finally reached a plateau with increasing concentrations of both of the ligands. However, the saturating ligand concentrations differed strongly between octopamine (≥300 nM) and NKH477 (≥100 µM). By plotting the maximal changes in fluorescence (ΔF/F0) against ligand concentrations, concentration–response curves were generated and EC50 values were calculated (Figure 4C). […] As observed for the DmOctα1B cell lines (see Figure 3D), the signal response times of flpTM-DmOctβ1 cells were faster at higher ligand concentrations (Figure 4A2,B2). In Figure 4D, the time until the signals were detected (for details, see Materials and Methods, Section 4.4) are plotted for the ligand concentrations covering the calculated EC50 value (dynamic range) and for saturating concentrations (saturating range). The signal response times of the flpTM-DmOctβ1 cells for octopamine were in the range of 30 s (dynamic range) and 6 s (saturating range), whereas the signal detection upon NKH477 application was observed after 50 s (dynamic range) and 16 s (saturating range). The signal response times were about three- to five-fold faster at the saturating concentrations in comparison to the octopamine and NKH477 concentrations in the dynamic range.
As described for the Fluo-4-loaded flpTM-DmOctβ1 cells, similar experiments were performed with the flpTM-DmOctβ1-GCaMP3.0 cells (Figure 5). The cells were successively mixed with increasing concentrations of octopamine (30 pM–100 nM) or NKH477 (30 nM–100 µM) and the fluorescence intensities were recorded over 100 s. For both of the ligands, increasing ligand concentrations led to an increase in the fluorescence emission finally reaching a plateau (Figure 5A1,B1).
For the stopped-flow measurements, the SFM-400 system (BioLogic, Münster, Germany) was used. The main component of the stopped-flow setup is the SFM-400 module with four 10 mL syringes, which can be filled by external valves. The syringes are driven by step motors. The reactants can be mixed in three individual mixing chambers (M1–M3). The volume between M1 and M2 is 21 µL, and 31 µL between M2 and M3. The observation chamber is a quartz cuvette (FC-15) with a reaction volume of 31 µL, installed behind M3. To avoid fluctuations of the reaction mixture in the cuvette, which might lead to noisy and inconsistent signals, a hard stop valve located behind the cuvette can be closed after injection of the reactants. The stopped-flow module is controlled via a MPS-60 control unit (BioLogic). Data acquisition and operation of the system were performed with the Bio-Kine 32 v4.74 software (BioLogic).
The reactions in the cuvette were analyzed via the changes in the fluorescence. A 150 W Xe/Hg-lamp (ALX-220; BioLogic) was used as a light source for the excitation. The excitation light was guided via a light guide towards the cuvette. To determine the wavelength of the excitation light, a 482 nm bandpass filter (482/35 nm BrightLine® single-band bandpass filter; Semrock, Rochester, NY, USA) was used. A heat protection filter (3 mm; KG1, Schott; Mainz, Germany) was placed between the Xe/Hg-lamp and the excitation filter. The fluorescence was detected with a photomultiplier (PMS 200, BioLogic) installed rectangularly to the light path of the excitation light. Between the cuvette and the photomultiplier tube a 535 nm bandpass emission filter (XF3007 535AF35; Horiba, Oberursel, Germany) was placed to select for the emission light being detected by the photomultiplier. A voltage of 600 V was applied to the photomultiplier.
The fluorescence measurements were performed either directly with the cells expressing GCaMP3.0 or after loading the cells with Fluo-4-AM. […]

For `NCC(O)c1ccc(O)cc1` (stereo not drawn) [octopamine], which Signal Response Time (dynamic range (concentrations around EC50), flpTM-DmOctβ1 cells loaded with Fluo-4) is on record?
The Signal Response Time was ~30 s.

And the “Signal Response Time” value (saturating concentration, flpTM-DmOctβ1-GCaMP3.0 cells, mean ± SEM)?
Its value is ~6 s.

And the “Signal Response Time” value (saturating concentration, flpTM-DmOctβ1-GCaMP3.0 cells, mean ± SEM, listed as Octopamine)?
Its value is 6.00 ± 0.20 s.

What about the “Signal Response Time” value (saturating concentration, flpTM-DmOctβ1 cells loaded with Fluo-4, mean ± SEM) of the same compound?
The value was ~6 s.

And the “Signal Response Time” value (saturating concentration, flpTM-DmOctβ1 cells loaded with Fluo-4, mean ± SEM, listed as Octopamine)?
The value was 6.00 ± 0.13 s.

What about the Signal Response Time (saturating ligand concentration, flpTM-DmOctβ1 cell lines, Fluo-4 and GCaMP3.0) of the same compound?
The Signal Response Time was 6 s and ≈ 6 s.

What about the EC50 (stopped-flow, flpTM-DmOctβ1-GCaMP3.0 cells, mean ± SEM) of the same compound?
The EC50 was ~1.8 nM and 1.78 nM and 1.8 nM.

And the saturating ligand concentration (stopped-flow, flpTM-DmOctβ1 cells loaded with Fluo-4)?
The saturating ligand concentration was ≥ 300 nM.

And the EC50 (stopped-flow, flpTM-DmOctβ1 cells loaded with Fluo-4, mean ± SEM)?
The EC50 was ~22 nM and 22 nM.
